In US20160009769A1, “PROCESSES FOR ISOLATING SALICYCLIC ACID RECEPTORS” (NEOPRO LABS, LLC, priority 2013, published 2016):

Experiments:
SARP [1] = assay: Dynamic light scattering (DLS) of SARP micelles/gel in water; type: biochemical, Sauromatum; settings: for micelle size after 20 min: 20 min after addition to 0.1 pM SARP in water; for micelle size upon addition: added to 0.1 pM SARP in water
Method: Organized droplets are seen under the light microscope when SARP solution is spread on a glass slide. Upon addition of DTT or mercaptoethanol the micelle size reduces to ˜300 nm, and after 20 min, the size increases back to ˜800 nm. […] The swelling and shrinking were discontinuous. Addition of 10 μM ATP stops the oscillation for ˜30 min. and then it is resumed at the same kinetics.
FIG. 11. SARP was purified from D-day appendices using RP-HPLC-ESI-MS. Purified SARP was solubilized in distilled water and analyzed using DLS. […] T, period.
Upon addition of water to the dry protein at a final concentration of 0.1 pM, micelles formed with a uniform size of ˜800 nm (FIG. 5). Upon addition of DTT or β-mercaptoethanol the micelle size reduced to ˜300 nm, and after 20 min, the size increased back to ˜800 nm. […] Addition of 10 μM ATP stopped the oscillation for ˜30 min. and then it resumed with the same kinetics.

SARP [2] = assay: UV spectra of SARP in the presence of ligands; type: biochemical; settings: 1 pM SARP
Method: FIG. 14. UV spectra of SAR in the presence of 2,6-DHBA. Freshly dissolved SAR was incubated with 2,6-DHBA and samples were taken for spectral analysis at the same time when the effect of SA on SAR was determined. The data present acquired spectra after baseline subtraction of each compound added to SAR. Every 3 min. after the addition of SAR a spectrum was recorded. A, The first 6 spectra were downward relative to the baseline (solid line). The following spectra were upward (broken line). (ME, β-mercaptoethanol).
FIG. 15. UV spectra of SAR in the presence of GTP, SA, and ATP. Freshly dissolved SARP was incubated with GTP and samples were taken for spectral analysis. Later, ME and SA were added to the sample, and finally ATP was added to the sample. The data present acquired spectra after baseline subtraction of each compound added to SARP. […] (ME, β-mercaptoethanol).
Thus, according to certain related embodiments, UV absorbance spectra of SARP may fluctuate over time when absorbance measurements are collected over a range of wavelengths and at a plurality of time points, if a salicylate-related compound is present or, under other chemical environments as described below. […] In certain preferred embodiments the change may be detected at wavelengths from (inclusively) 190 nm to 280 nm, where it will be appreciated that selection of a suitable wavelength may vary as a function of several factors including protein concentration, solution composition (e.g., absorbance properties of buffers, salts, etc.), instrument sensitivity, and other related attributes of a spectroscopic configuration.

SARP [3] = assay: ESI-MS charge state distribution (conformation) of SARP from Sauromatum appendix after treatment with salicylates; set-up: species or system Sauromatum guttatum
From the text: It is an aspect of the present invention to provide a method of detection and characterization of SARP using RP-HPLC/ESI-MS. This is accomplished using on-line splitting of 5 to 10% of the effluent from the UV detector to a Micromass Quattro II tandem quadrupole MS fitted with an ESI source (Waters Inc.) via a variable splitter allowing manual fraction collection. This instrument is operated in a positive ESI mode at a probe tip voltage of 3.6 kV and a cone voltage of 45 V. The source and nebulizer temperatures are maintained at 150 and 400° C., respectively, using N2 as both nebulizing and bath gas. The instrument is calibrated using water clusters over the range of 100-2400 Da with data acquisition is carried out from m/z 500 to 2000 in the continuum-scanning mode at 450 Da sec^1. Instrument tuning, mass calibration, data acquisition, processing and display are accomplished using MassLynx™ and MaxEnt™ software (Waters Inc.). This procedure provided a protein molecular mass with an accuracy of ˜0.1%.
FIG. 13. […] The ESI-MS spectra is different that that of ASA and SA. It is more expanded, lower m/z values.
Monomeric SARP undergoes a large-scale conformation transition from one state to another in the Sauromatum appendix during development. […] The concentration of SA in the appendix tissue is ˜1 μg/g fresh wt^4, and it is equivalent to ˜7 μM, within the range of this experiment.

Sauromatum appendix = settings: cited from earlier work; for triggering of heat production: S. guttatum
SARP [4] = assay: Reduction of tetrazolium salts by SARP in the presence of pyridine; type: biochemical; settings: tetrazolium salt 4 μM, pyridine 30%, 5 min at room temperature; mean of two determinations
From the text: Additionally and as described herein, SARPs are capable of unidirectionally transferring one or two electrons to an electron acceptor such as 3-(4,5-dimethyl thiazol-2-yl-(2,5-diphenyl) tetrazolium bromide (MTT), nitro blue tetrazolium (NBT) or neotetrazolium chloride (Neo-NBT), or to ferricytochrome c.

SARP [5] = assay: Effect of SA on the levels of SARP in the Sauromatum appendix; set-up: species or system Sauromatum guttatum; settings: D-1 appendix placed in 10 μM SA, protein extracted next morning; control in water 160
Method: In certain embodiments SARP is isolated using organic solutions. Tissues are ground n a juicer grinder in an organic extraction solution containing 50% IP, 2 mM β-mercaptoethanol, 0.5 mM EDTA, 5 mM butylated hydroxy-toluene, 0.1% tocopherol acetate, 0.1% polyvinylpoly-pyrrolidone (insoluble, Sigma-Aldrich Corp.) in 40 mM imidazole/HCl buffer, pH 7.0, at a weight/volume ratio of 1 g of tissue per 5 ml of extraction solution. The extract is centrifuged at 15,000 g for 10 min and the pellet is discarded. A strong cationic resin (DOWEX X-50, Sigma-Aldrich Corp.) is added to the supernatant (30 mg resin per ml) and stirred for 2.5 h at 4° C. The mixture is then centrifuged at 30 g for 2 min, and the supernatant is discard. The Dowex resin is washed several times, first with the extraction solution and finally with distilled water until a clear wash is obtained. Subsequently, the resin is again washed 2 times with 0.15 M phosphate buffer, pH 7.0. […] The protein solution is dialyzed using a 12-14 kDa cut-off dialysis bag against 3 L of distilled water at 4° C., the water is changed twice during 24 h. The content of the dialysis bag is removed and centrifuged at 10,000 g for 15 min. The pellet is used for SARP purification.
In certain embodiments SARP is purified using a reversed-phase high-performance liquid chromatography (RP-HPLC) on-line to elecrosray ionization-mass spectromer (ESI-MS). […]

Human SARP = assay: ESI-MS conformation of SARP purified from SK-N-SH cells treated with SA; type: cell-based; settings: SK-N-SH cells treated with 10 μM
From the text: The charge state distribution (CSD) of the human SARP is identical to its plant counterpart from the Sauromatum appendix during heat-production. […] This regulatory activity behaves as a metabolic switch that switching on and off heat-production. SARP can be a metabolic switch in the cytoplasm and mitochondria. […] However, if SA level fluctuates, SARP can be either in state B (compact) or state A (extanded) and consequently, can trigger oscillatory thermogenicity. In a more complex model, the cytoplasmic and the mitochondrial switch will have to be to be in state B. There are four possibilities for the output for both switches. When both switches are in states B, a singular event of heat-production occurs. Other options are cytoplasmic SARP in state A and mitochondrial SARP in either state A or B. Or, cytoplasmic SARP in state B and mitochondrial SARP in state A.
FIG. 16. Purification of SARP from SK-N-SH cells using perfusion chromatography. SARP was purified using RP-HPLC/ESI-MS. TIC chromatogram with solvent gradient overlay (A). Ion current chromatograms of m/z 1139 (B) and 1178, (C) corresponding to [M+30H]^30+ and […] charge states of the protein. Solvent A is 0.05% TFA in aqueous solution and solvent B is 0.05% aqueous TFA in ACN:IP at a ratio 2:1.
FIG. 17. Electrospray ionization mass spectrua of SARP from the SK-N-SH cells and Sauromatum appendix. […]

[6] = higher concentrations, 100 and 200 μM

Compound: O[C@H](CS)[C@H](O)CS (racemic) [DTT, dithiothreitol]
- micelle size after 20 min (SARP [1]): ~800 nm
- micelle size upon addition (SARP [1]): ~300 nm

Compound: O=C(O)c1c(O)cccc1O [2,6-DHBA, 2,6-dihydroxybenzoic acid]
- effect on UV spectrum of SARP (SARP [2]; incubation with NADH): did not exert the same effect
- ESI-MS spectra of SARP compared with ASA and SA (SARP [3]; D-2 and D-3 appendix sections incubated overnight in 100 μM): more expanded
- conformational state of SARP (SARP [3]; [6]): conformations that are more extended than state A
- triggering of heat production (Sauromatum appendix): can also trigger heat production

Compound: O=C(O)c1ccc(O)c(O)c1 [3,4-DHBA, 3,4-dihydroxybenzoic acid]
- effect on UV spectrum of SARP (SARP [2]; incubation with NADH): did not exert the same effect

Compound: CC(=O)Oc1ccccc1C(=O)O [ASA, aspirin]
- triggering of heat production (Sauromatum appendix): can also trigger heat production

Compound: Nc1ncnc2c1ncn2[C@@H]1O[C@H](COP(=O)(O)OP(=O)(O)OP(=O)(O)O)[C@@H](O)[C@H]1O [ATP]
- time the oscillation is stopped (SARP [1]; 10 μM added to oscillating SARP gel): ~30 min

Compound: Cc1nc(-[n+]2nc(-c3ccccc3)nn2-c2ccccc2)sc1C.[Br-] [MTT]
- O.D.530 (SARP [4]): 0.17

Compound: COc1cc(-c2ccc(-n3nc(-c4ccccc4)n[n+]3-c3ccc([N+](=O)[O-])cc3)c(OC)c2)ccc1-n1nc(-c2ccccc2)n[n+]1-c1ccc([N+](=O)[O-])cc1 [NBT, nitro blue tetrazolium]
- O.D.530 (SARP [4]): 0.14

Compound: c1ccc(-c2nn(-c3ccccc3)[n+](-c3ccc(-c4ccc(-[n+]5nc(-c6ccccc6)nn5-c5ccccc5)cc4)cc3)n2)cc1 [NeoT, neotetrazolium chloride]
- O.D.530 (SARP [4]): 0.06

Compound: O=C(O)c1ccccc1O [SA, salicylic acid]
- effect on UV spectrum of SARP (SARP [2]; incubation of SA and GTP and ATP): appearance of new bands from 197 to 230
- effect on UV spectrum of SARP (SARP [2]; incubation with NADH): a shift in a band from 197 to 230
- effect on micelle size (SARP [1]; 1 pM, molar ratio [SARP]/[SA]<0.1): immediately decreased the micelle size
- period of gel expansion/shrinking oscillation (SARP [1]; after addition of 1 pM SA): 4 to 5 min
- conformational state of SARP (SARP [3]; 10 μM applied to pre D-day appendices): induced a transition from state A in which SA undetectable in the tissue to state B
- conformational state of SARP (SARP [3]; [6]): conformations that are more extended than state A
- SARP (ng/g fresh wt.) (SARP [5]): 30 ng/g fresh wt.
- temperature rise of appendix section (Sauromatum appendix; added on D-1 morning, the next morning, untreated section stays at ambient temperature): up to 32 °C
- conformation of human SARP (Human SARP): a shift to a much more compact conformation

Compound: OCCS [β-mercaptoethanol]
- micelle size after 20 min (SARP [1]): ~800 nm
- micelle size upon addition (SARP [1]): ~300 nm
